Measured values reported in patent US5043332A, “Novel 11β-substituted -19-nor-steriods” (priority 1981, dated 1991).

Assays:
[1] = biological target: T1, Androgen receptor of prostate of rats (Rattus norvegicus, UniProt P15207); experiment: Androgen receptor binding (displacement of tritiated product P); conditions: for affinity for androgen receptors (in words): conclusion
T1 construct: The prostates were removed, weighed and homogenized at 0° C; from tissue; host or cells: rat prostate, 105,000 g supernatant (castrated male Sprague-Dawley rats)
T1 sequence (P15207 1-902): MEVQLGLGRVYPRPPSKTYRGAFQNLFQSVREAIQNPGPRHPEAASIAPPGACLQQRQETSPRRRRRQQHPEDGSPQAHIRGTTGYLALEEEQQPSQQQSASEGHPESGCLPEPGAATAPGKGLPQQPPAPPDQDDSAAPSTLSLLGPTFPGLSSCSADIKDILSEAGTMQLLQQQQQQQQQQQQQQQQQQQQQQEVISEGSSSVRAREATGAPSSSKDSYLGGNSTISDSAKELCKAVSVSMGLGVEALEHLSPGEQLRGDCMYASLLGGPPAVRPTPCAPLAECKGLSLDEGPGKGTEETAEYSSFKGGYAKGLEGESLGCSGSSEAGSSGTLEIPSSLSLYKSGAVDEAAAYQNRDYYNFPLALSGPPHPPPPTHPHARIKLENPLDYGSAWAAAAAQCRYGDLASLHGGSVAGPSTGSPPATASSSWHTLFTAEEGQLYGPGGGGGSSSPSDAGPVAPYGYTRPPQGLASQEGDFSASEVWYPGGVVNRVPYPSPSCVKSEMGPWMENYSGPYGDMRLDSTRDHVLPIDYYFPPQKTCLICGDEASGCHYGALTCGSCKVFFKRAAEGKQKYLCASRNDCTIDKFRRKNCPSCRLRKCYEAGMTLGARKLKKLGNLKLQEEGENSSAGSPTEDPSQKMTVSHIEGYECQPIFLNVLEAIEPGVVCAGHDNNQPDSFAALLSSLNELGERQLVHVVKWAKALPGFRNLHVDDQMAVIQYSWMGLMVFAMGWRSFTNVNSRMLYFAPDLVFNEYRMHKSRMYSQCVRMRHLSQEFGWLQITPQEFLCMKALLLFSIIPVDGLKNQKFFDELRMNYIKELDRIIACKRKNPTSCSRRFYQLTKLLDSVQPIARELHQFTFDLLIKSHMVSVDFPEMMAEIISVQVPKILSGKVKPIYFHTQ
Description: B. Androgen receptor of prostate of rats
Male Sprague-Dawley EPOS rats weighing of 160 to 200 g were castrated and 24 hours later, the animals were killed. The prostates were removed, weighed and homogenized at 0° C. with a polytetrafluoroethylene-glass Potter with a buffered TS solution (Tris, 10 mM, 0.25M Saccharose, HCl-pH of 7.4) using 1 g of tissue per 5 ml of TS. The homogenate was then ultracentrifuged at 105,000 g for 60 […] (T) of product P or 17α-methyl-Δ^4,9,11 -estratriene-17β-ol-3-one in the presence of increasing concentration (0-1,000×10^-9 M) of either cold P, cold testosterone or the test compound. The concentration of tied tritiated (B) was measured for each incubate by the technique of adsorption on carbon-dextran.
(§1) The calculation of the relative affinity of […] (ARL) was identical for all of the above receptor tests. One traced the following two curves: the percentage of tied tritiated hormone B/T as a function of the logarithm of the cold hormone concentration and B/T as a function of the logarithm of the concentration of the cold test product. One determined the line of the equation. [formula]
(§2) The intersection of the I50 line and the curves permits one to determine the concentrations of the cold hormone of the reference (CH) and the cold test compound (CX) which inhibit by 50% the tieing of tritiated hormone with the receptor. The relative affinity of tieing (ARL) of the test product was determined by the equation: [formula]

[2] = biological target: T2, Estrogen receptor of uterus of mice (Mus musculus, UniProt P19785); experiment: Estrogen receptor binding (displacement of tritiated estradiol)
T2 construct: the uterus were removed and homogenized at 0° C; from tissue; host or cells: mouse uterus, 105,000 g supernatant (immature females 18 to 21 days old)
T2 sequence (P19785 1-599): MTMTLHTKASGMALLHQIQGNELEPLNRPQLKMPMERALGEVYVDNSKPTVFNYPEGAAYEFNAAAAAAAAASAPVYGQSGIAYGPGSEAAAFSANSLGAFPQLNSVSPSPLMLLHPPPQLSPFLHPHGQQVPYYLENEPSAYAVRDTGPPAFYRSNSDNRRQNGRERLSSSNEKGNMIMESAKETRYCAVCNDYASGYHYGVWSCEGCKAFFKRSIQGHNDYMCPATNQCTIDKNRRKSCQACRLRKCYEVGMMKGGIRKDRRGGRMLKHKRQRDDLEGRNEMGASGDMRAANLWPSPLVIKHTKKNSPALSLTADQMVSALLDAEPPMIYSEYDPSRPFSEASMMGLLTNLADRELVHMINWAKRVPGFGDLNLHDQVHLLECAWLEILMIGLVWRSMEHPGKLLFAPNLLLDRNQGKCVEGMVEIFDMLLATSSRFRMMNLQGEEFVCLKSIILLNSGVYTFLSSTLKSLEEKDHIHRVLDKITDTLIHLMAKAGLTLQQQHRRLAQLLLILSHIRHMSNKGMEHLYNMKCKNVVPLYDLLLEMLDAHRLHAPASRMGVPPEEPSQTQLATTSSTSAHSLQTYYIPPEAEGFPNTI
Description: E. Estrogen receptor of uterus of mice
Immature female mice 18 to 21 days old were killed and the uterus were removed and homogenized at 0° C. with a polytetrafluoroethylene-glass Potter in a buffered TS solution consisting of 10 mM, Tris, 0125M Saccharose, HCl for a pH of 7.4 at a rate of 1 g of tissue per 25 ml of TS. The homogenate was then ultracentrigued at 105,000 g for 90 minutes at 0° C. and aliquoits of the resulting […] were incubated at 0° C. for a time (t) with a constant concentration (T) of tritiated estradiol in the presence of increasing concentrations (0 to 1000×10^-9 M) of either cold estradiol or cold test compound. The concentration of tied tritiated estradiol (B) was measured for each incubate by the technique of adsorption on carbon-dextran.
as §1, §2

[3] = system: thymocytes of surrenalectomized rats; experiment: Antiglucocorticoidal activity, incorporation of tritiated uridine in thymocytes; type: cell-based; conditions: for inhibition at 0.1 µM: 5 × 10^-8 M dexamethasone + test product 10^-7 M; for inhibition at 0.01 µM: 5 × 10^-8 M dexamethasone + test product 10^-8 M; for opposition to the effect of dexamethasone on tritiated uridine incorporation (in words): with 5×10^-8 M dexamethasone
Description: III. Antiglucocorticoidal Activity
The test used was that of Dausse et al [Molecular Pharmacology, Vol. 13 (1977), p. 948-955] entitled "The relationship between glucocorticoid structure and effects upon thymocytes" for […] thymocytes. The thymocytes of surrenalectomized rats were incubated at 37° C. for 3 hours in a nutritive medium containing 5×10^-8 M of dexamethasone in the presence or absence of the test compound at different concentrations. Tritiated uridine was added and incubation was continued for one hour. The incubates were cooled and treated with a 5% trifluoroacetic acid solution and the mixture was filtered with Whatman GF/A paper. The filter was washed 3 times with a 5% trifluoroacetic acid solution and retained radioactivity on the filter was determined.

[4] = 5 × 10^-8 M dexamethasone + test product 10^-6 M
[5] = Rattus norvegicus, Thymocyte, read-out: % inhibition of effect of Dexamethasone
[6] = second table, incubation 24 H at 0° C.
[7] = second table, incubation 2 H at 0° C.

SMILES | relative affinity of tieing (ARL), Androgen ([1]; incubation 1/2H at 0° C.) | relative affinity of tieing (ARL), Androgen ([1]; incubation 24 H at 0° C.) | relative affinity of tieing (ARL), Estrogen ([2]; incubation 2 H at 0° C.) | relative affinity of tieing (ARL), Estrogen ([2]; incubation 5 H (25° C.)) | % inhibition of effect of Dexamethasone (symbol) [3, 4] | inhibition at 0.1 µM [3, 5] | inhibition at 0.01 µM [3, 5] | inhibition at 1 µM ([3]; Rattus norvegicus, Thymocyte, 5 × 10^-8 M dexamethasone + test product 10^-6 M, read-out: % inhibition of effect of Dexamethasone) | opposition to the effect of dexamethasone on tritiated uridine incorporation (in words) [3] | affinity for androgen receptors (in words) [1] | relative affinity of tieing (ARL), Androgen [1, 6] | relative affinity of tieing (ARL), Estrogen [2, 7]
CC#C[C@]1(OC(C)=O)CC[C@H]2[C@@H]3CCc4cc(O)ccc4[C@H]3[C@@H](c3ccc(N(C)C)cc3)C[C@@]21C [2 (17 OAc), 11β-(4-dimethylaminophenyl)-17α-(prop-1-ynyl)-17β-acetoxy-Δ^1,3,5(10) -estratriene-3-ol] | < 0,1 | < 0,1 | < 0,1 | 0,1 | * (A dose of 10^-6 M inhibited the effect of dexamethasone totally) | 76% | 24% |  |  |  |  | 
CC#C[C@]1(O)CC[C@H]2[C@@H]3CCC4=CC(=O)[C@H](C)CC4=C3[C@@H](c3ccc(N(C)C)cc3)C[C@@]21C [5 (2α), 2α-methyl-11β-(4-dimethylaminophenyl)-17α-(prop-1-ynyl)-Δ^4,9-estradiene-17β-ol-3-one] | 0,5 | 0,4 | < 0,1 | < 0,1 |  | 57% | 19% | 100% |  |  |  | 
CC#C[C@]1(O)CC[C@H]2[C@@H]3CCC4=CC(=O)[C@@H](C)CC4=C3[C@@H](c3ccc(N(C)C)cc3)C[C@@]21C [5 (2β), 2-methyl-11β-(4-dimethylaminophenyl)-17α-(prop-1-ynyl)-Δ^4,9-estradiene-17β-ol-3-one] | 0,7 | 0,5 | < 0,1 | < 0,1 | * (A dose of 10^-6 M inhibited the effect of dexamethasone totally) | 57% | 10% |  |  |  |  | 
CC#C[C@]1(O)CC[C@H]2[C@@H]3CCC4=CC(=O)C(C)(C)CC4=C3[C@@H](c3ccc(N(C)C)cc3)C[C@@]21C [Example 1, 2,2-dimethyl-11β-(4-dimethylaminophenyl)-17α-(prop-1-ynyl)-Δ^4,9-estradiene-17β-ol-3-one] |  |  | < 0,1 | < 0,1 | * (A dose of 10^-6 M inhibited the effect of dexamethasone totally) | 18% | 8% |  | opposed this effect |  |  | 
CC#C[C@]1(O)CC[C@H]2[C@@H]3CCC4=CC(=O)[C@H](C)CC4=C3[C@@H](c3ccc(N(C)C)cc3)C[C@@]21C [Example 5, 2α-methyl-11β-(4-dimethylaminophenyl)-17α-(prop-1-ynyl)-Δ^4,9-estradiene-17β-ol-3-one] |  |  |  |  |  |  |  |  | opposed this effect | slightly moderate affinity |  | 
CC#C[C@]1(O)CC[C@H]2[C@@H]3CCC4=C(CCC(=O)C4)[C@H]3[C@@H](c3ccc(N(C)C)cc3)C[C@@]21C [Example 10, 11β-(4-dimethylaminophenyl)-17α-(prop-1-ynyl)-Δ^5(10) -estrene-17β-ol-3-one] |  |  | < 0,1 | < 0,1 | * (A dose of 10^-6 M inhibited the effect of dexamethasone totally) | 23% | 0% |  | opposed this effect |  |  | 
CC#C[C@]1(O)CC[C@H]2[C@@H]3CCC4=CC(=O)CCC4=C3[C@@H](c3ccc(N(C)C)cc3)C[C@@]21C [Example 19, 11β-[4-(N,N-dimethylamino)-phenyl]-17α-(prop-1-ynyl)-Δ^4,9-estradiene-17β-ol-3-one] |  |  |  |  |  |  |  |  | opposed this effect |  |  | 
C[C@]12C[C@H](c3ccc([N+](C)(C)[O-])cc3)[C@]34O[C@]35CCC(=O)C=C5CC[C@H]4[C@@H]1CC[C@@]2(O)C#CCl [Example 27, N-oxide of 11β-[4-(N,N-dimethylamino)-phenyl]-9α,10α-epoxy-21-chloro-19-nor-17α-Δ^4-pregnene-20-yne-17β-ol-3-one] |  |  |  |  |  |  |  |  |  |  | 2,8 | 0
C#C[C@]1(O)CC[C@H]2[C@@H]3CCC4=CC(=O)CCC4=C3[C@@H](c3ccc(N(C)C)cc3)C[C@@]21C [Example 32, 11β-[4-(N,N-dimethylamino)-phenyl]-17α-ethynyl-Δ^4,9-estradiene-17β-ol-3-one] |  |  |  |  |  |  |  |  |  | slightly moderate affinity | 68 | 0
CN(C)c1ccc([C@H]2C[C@@]3(C)[C@@H](CC[C@@]3(O)C#C[Si](C)(C)C)[C@@H]3CCC4=CC(=O)CCC4=C32)cc1 [Example 44, 11β-[4-(N,N-dimethylamino)-phenyl]-21-trimethylsilyl-19-nor-17α-Δ^4,9-pregnadiene-20-yne-17β-ol-3-one] |  |  |  |  |  |  |  |  |  |  | 4,6 | 0
